{"source": "patent US20250388542A1", "about": "“ANALOGUES OF PENTAMIDINE AND USES THEREFOR” (Auransa Inc., priority 2018, published 2025)", "format_in_all_cases": "cell-based", "key": {"Hep3B-luc": {"tested_on": "Hep3B-luc", "assay": "CellTiter-Glo cell viability, liver cell lines, 8 days", "details": "Hep 3B-Luc, 192 h, full growth media", "description": "The objective of this study is to investigate the effect of Compound 1 on cell viability of various types of liver cancer. Ten (10) different liver cancer cell lines were employed in the study. Each liver cell line shown in Table 4 was treated with Compound 1, pentamidine, as reference control, a standard of care (cisplatin) and culture medium contains 0.2% [v/v] DMSO vehicle control and IC50 values were obtained as described above. The raw data values from the CellTiter-Glo™ cell viability assay expressed in relative luminescence units were normalized to the vehicle for each individual plate, and any reduction in luminescence indicated a decrease in viability (%). The data was analyzed in GraphPad PRISM using a non-linear sigmoidal plot with variable slope (asymmetric four-point linear regression), and an IC50 value for each compound was generated. The experiment tested pentamidine, compound 1, and standard-of-care control Cisplatin in full growth media for 8 days. Cells were initially treated with the test compounds on Day 0, and the cells were then replenished with fresh compound dilutions on Day 3. Pentamidine, Compound 1, and cisplatin were tested at 9 concentration points; 100, 33.33, 11.11, 3.70, 1.23, 0.41, 0.14, 0.05, and 0.02 μM (final DMSO concentration=0.5%). In particular, the IC50 values of pentamidine and Compound 1 were 0.8 and 0.6 μM in Hep3B-luc, respectively.\nThe experiment tested pentamidine, Compound 1, and standard of care control, cisplatin, in full growth media for 8 days. Hep-3b cells were initially treated with the test compounds on Day 0, and the cells were then replenished with fresh compound dilutions on Day 3. […] The raw data values from the CellTiter-Glo™ cell viability assay expressed in relative luminescence units were normalized to the vehicle for each individual plate, and any reduction in luminescence indicated a decrease in viability (%). The data was analyzed in GraphPad PRISM using a non-linear sigmoidal plot with variable slope (asymmetric four-point linear regression), and an IC50 value for each compound was generated. […]"}, "LNCaP clone FGC": {"tested_on": "LNCaP clone FGC", "assay": "CellTiter-Glo cytotoxicity, cancer cell line panel", "details": "Homo sapiens, Prostate carcinoma", "description": "(§1) The objective of this study is to investigate potential cell killing effect of Compounds 1-15 on 3 cancer cell lines. 50% inhibition concentration (IC50) was determined for these compounds in various cancer cell lines using CellTiter-Glo™ luminescent cell viability assay at different compound concentrations. Each cell line (e.g., NCI-H209; NCI-H69; and SW1271) was treated with Compounds 1-15 and culture medium contains 0.2% [v/v] DMSO vehicle control. All the cells were cultured in the media supplemented with 10-20% fetal bovine serum at 37° C., 5% CO2 and 95% humidity.\n(§2) The objective of this study is to investigate the effect of Compound 1 on cytotoxicity against 61 different types of cancer cell lines. IC50 were values were obtained using CellTiter-Glo™ as described above. Each cell line shown in Table 3 was treated with Compound 1, a standard chemotherapy drug, cisplatin, as reference control and culture medium contains 0.2% [v/v] DMSO vehicle control. All cancer cell lines were cultured in media supplemented with 10-20% fetal bovine serum at 37° C., 5% CO2 and 95% humidity."}, "SNU-368": {"tested_on": "SNU-368", "assay": "CellTiter-Glo cytotoxicity, cancer cell line panel", "details": "SNU-368, Hepatocellular carcinoma", "description": "as §1, §2"}, "SNU-398": {"tested_on": "SNU-398", "assay": "CellTiter-Glo cytotoxicity, cancer cell line panel", "details": "Homo sapiens; SNU-398, Hepatocellular carcinoma", "description": "as §1, §2"}, "SNU-354": {"tested_on": "SNU-354", "assay": "CellTiter-Glo cytotoxicity, cancer cell line panel", "details": "Homo sapiens; SNU-354, Hepatocellular carcinoma", "description": "as §1, §2"}, "SNU-761": {"tested_on": "SNU-761", "assay": "CellTiter-Glo cytotoxicity, cancer cell line panel", "details": "SNU-761, Hepatocellular carcinoma", "description": "as §1, §2"}, "LN-229": {"tested_on": "LN-229", "assay": "CellTiter-Glo cytotoxicity, cancer cell line panel", "details": "Homo sapiens; LN-229, Glioblastoma", "description": "as §1, §2"}, "SK-OV-3": {"tested_on": "SK-OV-3", "assay": "CellTiter-Glo cytotoxicity, cancer cell line panel", "details": "Homo sapiens; SK-OV-3, Ovarian serous cystadenocarcinoma", "description": "as §1, §2"}, "SK-HEP-1": {"tested_on": "SK-HEP-1", "assay": "CellTiter-Glo cytotoxicity, cancer cell line panel", "details": "Homo sapiens, SK-HEP1; SK-HEP-1, Hepatocellular carcinoma", "description": "as §1, §2"}, "SNU-423": {"tested_on": "SNU-423", "assay": "CellTiter-Glo cytotoxicity, cancer cell line panel", "details": "Homo sapiens; SNU-423, Hepatocellular carcinoma", "description": "as §1, §2"}, "HCCC-9810": {"tested_on": "HCCC-9810", "assay": "CellTiter-Glo cytotoxicity, cancer cell line panel", "details": "HCCC9810; HCCC-9810, Intrahepatic cholangiocarcinoma", "description": "as §1, §2"}, "SF268": {"tested_on": "SF268", "assay": "CellTiter-Glo cytotoxicity, cancer cell line panel", "details": "Homo sapiens, SF-268; SF268, Astrocytoma", "description": "as §1, §2"}, "JHH-7": {"tested_on": "JHH-7", "assay": "CellTiter-Glo cytotoxicity, cancer cell line panel", "details": "JHH7; JHH-7, Hepatocellular carcinoma", "description": "as §1, §2"}, "JHH-1": {"tested_on": "JHH-1", "assay": "CellTiter-Glo cytotoxicity, cancer cell line panel", "details": "JHH1; JHH-1, Hepatocellular carcinoma", "description": "as §1, §2"}, "MKN45": {"tested_on": "MKN45", "assay": "CellTiter-Glo cytotoxicity, cancer cell line panel", "details": "Homo sapiens, MKN-45; MKN45, Gastric adenocarcinoma", "description": "as §1, §2"}, "SK-NEP-1": {"tested_on": "SK-NEP-1", "assay": "CellTiter-Glo cytotoxicity, cancer cell line panel", "details": "Homo sapiens; SK-NEP-1, Ewing sarcoma", "description": "as §1, §2"}, "Hep3B": {"tested_on": "Hep3B", "assay": "CellTiter-Glo cytotoxicity, cancer cell line panel", "details": "Homo sapiens, Hepatocellular carcinoma", "description": "as §1, §2"}, "NCI-H460": {"tested_on": "NCI-H460", "assay": "CellTiter-Glo cytotoxicity, cancer cell line panel", "details": "Homo sapiens; NCI-H460, Large cell lung carcinoma", "description": "as §1, §2"}, "BT-474": {"tested_on": "BT-474", "assay": "CellTiter-Glo cytotoxicity, cancer cell line panel", "details": "Homo sapiens; BT-474, Invasive ductal carcinoma", "description": "as §1, §2"}, "HCCLM3": {"tested_on": "HCCLM3", "assay": "CellTiter-Glo cytotoxicity, cancer cell line panel", "details": "Homo sapiens; HCCLM3, Hepatocellular carcinoma", "description": "as §1, §2"}, "JHH-4": {"tested_on": "JHH-4", "assay": "CellTiter-Glo cytotoxicity, cancer cell line panel", "details": "JHH-4, Hepatocellular carcinoma", "description": "as §1, §2"}, "JHH-5": {"tested_on": "JHH-5", "assay": "CellTiter-Glo cytotoxicity, cancer cell line panel", "details": "JHH-5, Hepatocellular carcinoma", "description": "as §1, §2"}}, "data": [{"smiles": "N=C(N)c1ccc(OCCCCCOc2ccc(C(=N)N)nc2)cc1", "note": "[Compound 1, 5-(5-(4-carbamimidoylphenoxy)pentyloxy)picolinimidamide]", "values": [{"measurement": "IC50", "setting": "Hep3B-luc", "result": 0.6, "unit": "µM"}, {"measurement": "IC50", "setting": "LNCaP clone FGC", "result": 1.78, "unit": "µM"}, {"measurement": "IC50", "setting": "SNU-368", "result": 0.36, "unit": "µM"}, {"measurement": "IC50", "setting": "SNU-398", "result": 0.22, "unit": "µM"}, {"measurement": "IC50", "setting": "SNU-354", "result": 0.84, "unit": "µM"}, {"measurement": "IC50", "setting": "SNU-761", "result": 3.31, "unit": "µM"}, {"measurement": "IC50", "setting": "LN-229", "result": 1.6, "unit": "µM"}, {"measurement": "IC50", "setting": "SK-OV-3", "result": 1.17, "unit": "µM"}, {"measurement": "IC50", "setting": "SK-HEP-1", "result": 4.72, "unit": "µM"}, {"measurement": "IC50", "setting": "SNU-423", "result": 1.75, "unit": "µM"}, {"measurement": "IC50", "setting": "HCCC-9810", "result": 0.71, "unit": "µM"}, {"measurement": "IC50", "setting": "SF268", "result": 0.75, "unit": "µM"}, {"measurement": "IC50", "setting": "JHH-7", "result": 0.5, "unit": "µM"}, {"measurement": "IC50", "setting": "JHH-1", "result": 3.87, "unit": "µM"}, {"measurement": "IC50", "setting": "MKN45", "result": 0.64, "unit": "µM"}, {"measurement": "IC50", "setting": "SK-NEP-1", "result": 1.93, "unit": "µM"}, {"measurement": "IC50", "setting": "Hep3B", "result": 0.28, "unit": "µM"}, {"measurement": "IC50", "setting": "NCI-H460", "result": 0.52, "unit": "µM"}, {"measurement": "IC50", "setting": "BT-474", "result": 15.7, "unit": "µM"}, {"measurement": "IC50", "setting": "HCCLM3", "result": 12.2, "unit": "µM"}, {"measurement": "IC50", "setting": "JHH-4", "result": 1.27, "unit": "µM"}, {"measurement": "IC50", "setting": "JHH-5", "result": 0.65, "unit": "µM"}]}]}
